Laboratory results taken from patent US20230085307A1, “PYRIDAZINONE COMPOUND AND HERBICIDE” (NISSAN CHEMICAL CORPORATION, priority 2019, published 2023).

Tests used:
late watergrass [1] = assay: Test Example 1: herbicidal activity, application before weed generation under submerged conditions (Table 16, symbol A); format: in vivo, late watergrass (Echinochloa oryzicola); details: amount of applied herbicide 320 g/ha
Procedure, shortened: (§1)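 Submerged Wagner pots (alluvial soil, 4 cm water) sown with weed seeds and planted with 2.5-leaf rice seedlings; emulsifiable concentrate diluted in water applied to water surface on sowing day. Held in greenhouse at 25-30 °C; injury scored 0-5 by herbicidal rate after three weeks.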

wild oat = assay: Test Example 5: herbicidal effect by foliage application, plastic box (Table 20, symbol I); format: in vivo, wild oat (Avena fatua); details: foliage application, 320 g/ha; for herbicidal effect on wild oat (I) / I: wild oat, herbicidal effect grade: three weeks after application
Procedure, shortened: (§2)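 Foliar spray test: emulsion formulation diluted in water to a set application rate, sprayed onto 14-day-old plants raised in diluvial soil at 25° C to 30° C under glass. Both herbicidal effect and crop effect rated visually three weeks later.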

chickweed = assay: Test Example 4: herbicidal effect by soil treatment (Table 19, symbol P); format: in vivo, common chickweed (Stellaria media); details: amount of applied herbicide 320 g/ha
Procedure, shortened: (§3)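 Herbicidal effect was rated 3 weeks after treatment, using the scoring criteria of an earlier test. The compound, formulated as an emulsion and diluted in water to a set herbicide amount, had been sprayed uniformly on soil over freshly sown seeds. Growth took place in a greenhouse at 25° C. to 30° C.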

Japanese bulrush = assay: Test Example 1: herbicidal activity, application before weed generation under submerged conditions (Table 16, symbol B); format: in vivo, Japanese bulrush (Schoenoplectus juncoides); details: amount of applied herbicide 320 g/ha
Procedure, shortened: as §1

windgrass = assay: Test Example 5: herbicidal effect by foliage application, plastic box (Table 20, symbol L); format: in vivo, windgrass (Apera spica-venti); details: foliage application, 320 g/ha; for herbicidal effect on windgrass (L) / L: windgrass, herbicidal effect grade: three weeks after application
Procedure, shortened: as §2

oval-leafed pondweed = assay: Test Example 2: herbicidal activity, application during weed generation under submerged conditions (Table 17, symbol C); format: in vivo, oval-leafed pondweed (Monochoria vaginalis); details: for herbicidal effect rating, C: oval-leafed pondweed: AAH 320 g/ha, application during weed generation, submerged conditions
Procedure, shortened: (§4)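 In this pot test, flooded alluvial soil (water depth 4 cm) holds all three species sown as a mixture. Once seedlings have one to two leaves, the compound's emulsion, thinned with water to the intended dose, is poured on the water; grading follows after three weeks on the earlier criteria.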

persian speedwell = assay: Test Example 5: herbicidal effect by foliage application, plastic box (Table 20, symbol R); format: in vivo, Persian speedwell (Veronica persica); details: foliage application, 320 g/ha; for herbicidal effect on persian speedwell (R) / R: persian speedwell, herbicidal effect grade: three weeks after application
Procedure, shortened: as §2

false cleavers = assay: Test Example 4: herbicidal effect by soil treatment (Table 19, symbol Q); format: in vivo, false cleavers (Galium spurium); details: amount of applied herbicide 320 g/ha
Procedure, shortened: as §3

southern crabgrass [2] = assay: Test Example 4: herbicidal effect by soil treatment (Table 19, symbol F); format: in vivo, southern crabgrass (Digitaria ciliaris); details: amount of applied herbicide 320 g/ha
Procedure, shortened: as §3

barnyard grass [3] = assay: Test Example 3: herbicidal effect by foliage application, Wagner pot (Table 18, symbol H); format: in vivo, barnyard grass (Echinochloa crus-galli); details: for Herbicidal effect on H (barnyard grass), foliage application: amount of applied herbicide 320 g/ha; for herbicidal effect on barnyard grass (H): 320 g/ha
Procedure, shortened: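 Plants were sown in alluvial soil held under 0.1–0.5 cm standing water and grown 14 days in a greenhouse at 25–30 °C. An emulsifiable formulation, water-diluted to the set dose, was then sprayed onto the foliage, and effects were scored three weeks later using previously defined criteria.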

barnyard grass [4] = assay: Test Example 4: herbicidal effect by soil treatment (Table 19, symbol H); format: in vivo, barnyard grass (Echinochloa crus-galli); details: amount of applied herbicide 320 g/ha
Procedure, shortened: as §3

southern crabgrass [5] = assay: Test Example 5: herbicidal effect by foliage application, plastic box (Table 20, symbol F); format: in vivo, southern crabgrass (Digitaria ciliaris); details: foliage application, 320 g/ha; for herbicidal effect on southern crabgrass (F) / F: southern crabgrass, herbicidal effect grade: three weeks after application
Procedure, shortened: as §2

green foxtail = assay: Test Example 5: herbicidal effect by foliage application, plastic box (Table 20, symbol G); format: in vivo, green foxtail (Setaria viridis); details: foliage application, 320 g/ha; for herbicidal effect on green foxtail (G) / G: green foxtail, herbicidal effect grade: three weeks after application
Procedure, shortened: as §2

late watergrass [6] = assay: Test Example 2: herbicidal activity, application during weed generation under submerged conditions (Table 17, symbol A); format: in vivo, late watergrass (Echinochloa oryzicola); details: for herbicidal effect rating, A: late watergrass: AAH 320 g/ha, application during weed generation, submerged conditions
Procedure, shortened: as §4

lambsquarters = assay: Test Example 5: herbicidal effect by foliage application, plastic box (Table 20, symbol O); format: in vivo, lambsquarters (Chenopodium album); details: foliage application, 320 g/ha; for herbicidal effect on lambsquarters (O) / O: lambsquarters, herbicidal effect grade: three weeks after application
Procedure, shortened: as §2

blackgrass = assay: Test Example 4: herbicidal effect by soil treatment (Table 19, symbol J); format: in vivo, blackgrass (Alopecurus myosuroides); details: amount of applied herbicide 320 g/ha
Procedure, shortened: as §3

redroot pigweed = assay: Test Example 5: herbicidal effect by foliage application, plastic box (Table 20, symbol N); format: in vivo, redroot pigweed (Amaranthus retroflexus); details: foliage application, 320 g/ha; for N: redroot pigweed, herbicidal effect grade: three weeks after application
Procedure, shortened: as §2

[7] = evaluated 3 weeks after application
[8] = application during weed generation under submerged conditions, amount of applied herbicide 320 g/ha

| Structure (SMILES) | Herbicidal effect, A: late watergrass (late watergrass [1]) | herbicidal effect on wild oat (I) (wild oat) | P: chickweed, herbicidal effect grade (chickweed) | Herbicidal effect, B: Japanese bulrush (Japanese bulrush) | herbicidal effect on windgrass (L) (windgrass) | herbicidal effect rating, C: oval-leafed pondweed (oval-leafed pondweed) | herbicidal effect on persian speedwell (R) (persian speedwell) | Q: false cleavers, herbicidal effect grade (false cleavers) | F: southern crabgrass, herbicidal effect grade (southern crabgrass [2]) | Herbicidal effect on H (barnyard grass), foliage application (barnyard grass [3]) | H: barnyard grass, herbicidal effect grade (barnyard grass [4]) | herbicidal effect on southern crabgrass (F) (southern crabgrass [5]) | herbicidal effect on green foxtail (G) (green foxtail) | herbicidal effect rating, A: late watergrass (late watergrass [6]) | herbicidal effect on lambsquarters (O) (lambsquarters) | J: blackgrass, herbicidal effect grade (blackgrass) | I: wild oat, herbicidal effect grade (wild oat) | L: windgrass, herbicidal effect grade (windgrass) | R: persian speedwell, herbicidal effect grade (persian speedwell) | herbicidal effect on barnyard grass (H) (barnyard grass [3]) | also measured |
| --- | --- | --- | --- | --- | --- | --- | --- | --- | --- | --- | --- | --- | --- | --- | --- | --- | --- | --- | --- | --- | --- |
| COc1ccc(-c2oc3ccc(Cl)cc3c2-c2c(O)c(C)nn(C)c2=O)cc1 [9-002] | 0 (Herbicidal rate of 5% or less (almost no effect)) | 0 (Herbicidal rate of 5% or less (almost no effect)) | 4 (Herbicidal rate of 70% or more and less than 90%) | 3 (Herbicidal rate of 40% or more and less than 70%) | 1 (Herbicidal rate of 5% or more and less than 20%) | 3 (Herbicidal rate of 40% or more and less than 70%) | 5 (Herbicidal rate of 90% or more (almost completely withered)) | 0 (Herbicidal rate of 5% or less (almost no effect)) | 2 (Herbicidal rate of 20% or more and less than 40%) | 3 (Herbicidal rate of 40% or more and less than 70%) | 2 (Herbicidal rate of 20% or more and less than 40%) | 0 (Herbicidal rate of 5% or less (almost no effect)) | 0 (Herbicidal rate of 5% or less (almost no effect)) | 0 (Herbicidal rate of 5% or less (almost no effect)) | 4 (Herbicidal rate of 70% or more and less than 90%) | 1 (Herbicidal rate of 5% or more and less than 20%) | – | – | – | – | – |
| CSc1ccc(-c2oc3ccc(F)cc3c2-c2c(O)c(C)nn(C)c2=O)cc1 [9-037] | 3 (Herbicidal rate of 40% or more and less than 70%) | 5 (Herbicidal rate of 90% or more (almost completely withered)) | – | 0 (Herbicidal rate of 5% or less (almost no effect)) | 5 (Herbicidal rate of 90% or more (almost completely withered)) | 2 (Herbicidal rate of 20% or more and less than 40%) | 5 (Herbicidal rate of 90% or more (almost completely withered)) | 0 (Herbicidal rate of 5% or less (almost no effect)) | 4 (Herbicidal rate of 70% or more and less than 90%) | 5 (Herbicidal rate of 90% or more (almost completely withered)) | 2 (Herbicidal rate of 20% or more and less than 40%) | 4 (Herbicidal rate of 70% or more and less than 90%) | 5 (Herbicidal rate of 90% or more (almost completely withered)) | 0 (Herbicidal rate of 5% or less (almost no effect)) | 5 (Herbicidal rate of 90% or more (almost completely withered)) | 0 (Herbicidal rate of 5% or less (almost no effect)) | – | – | – | – | – |
| Cc1ccc2oc(-c3ccc(SC(C)C)cc3)c(-c3c(O)c(C)nn(C)c3=O)c2c1 [9-059] | 5 (Herbicidal rate of 90% or more (almost completely withered)) | – | 5 (Herbicidal rate of 90% or more (almost completely withered)) | 3 (Herbicidal rate of 40% or more and less than 70%) | – | – | – | – | 0 (Herbicidal rate of 5% or less (almost no effect)) | 5 (Herbicidal rate of 90% or more (almost completely withered)) | 1 (Herbicidal rate of 5% or more and less than 20%) | – | – | – | – | 0 (Herbicidal rate of 5% or less (almost no effect)) | – | – | – | – | I (wild oat) herbicidal effect grade (wild oat; [7]): 3 (Herbicidal rate of 40% or more and less than 70%); L (windgrass) herbicidal effect grade (windgrass; [7]): 1 (Herbicidal rate of 5% or more and less than 20%); herbicidal effect grade, C: oval-leafed pondweed (oval-leafed pondweed; [8]): 4 (Herbicidal rate of 70% or more and less than 90%); R (persian speedwell) herbicidal effect grade (persian speedwell; [7]): 5 (Herbicidal rate of 90% or more (almost completely withered)); F (southern crabgrass) herbicidal effect grade (southern crabgrass [5]; [7]): 2 (Herbicidal rate of 20% or more and less than 40%); G (green foxtail) herbicidal effect grade (green foxtail; [7]): 5 (Herbicidal rate of 90% or more (almost completely withered)); N (redroot pigweed) herbicidal effect grade (redroot pigweed; [7]): 5 (Herbicidal rate of 90% or more (almost completely withered)); herbicidal effect grade, A: late watergrass (late watergrass [6]; [8]): 4 (Herbicidal rate of 70% or more and less than 90%); O (lambsquarters) herbicidal effect grade (lambsquarters; [7]): 5 (Herbicidal rate of 90% or more (almost completely withered)) |
| COc1ccc2c(-c3c(O)c(Cl)nn(C)c3=O)c(-c3ccccc3OC)sc2c1 [Compound No. 3-088, 6-chloro-5-hydroxy-4-(6-methoxy-2-(2-methoxyphenyl)benzo[b]thiophen-3-yl)-2-methylpyridazin-3(2H)-one] | 5 (Herbicidal rate of 90% or more (almost completely withered)) | – | 5 (Herbicidal rate of 90% or more (almost completely withered)) | 5 (Herbicidal rate of 90% or more (almost completely withered)) | – | 3 (Herbicidal rate of 40% or more and less than 70%) | – | – | 4 (Herbicidal rate of 70% or more and less than 90%) | – | 5 (Herbicidal rate of 90% or more (almost completely withered)) | – | – | 3 (Herbicidal rate of 40% or more and less than 70%) | – | 0 (Herbicidal rate of 5% or less (almost no effect)) | 3 (Herbicidal rate of 40% or more and less than 70%) | 3 (Herbicidal rate of 40% or more and less than 70%) | 5 (Herbicidal rate of 90% or more (almost completely withered)) | 5 (Herbicidal rate of 90% or more (almost completely withered)) | F: southern crabgrass, herbicidal effect grade (southern crabgrass [5]): 0 (Herbicidal rate of 5% or less (almost no effect)); G: green foxtail, herbicidal effect grade (green foxtail): 5 (Herbicidal rate of 90% or more (almost completely withered)); N: redroot pigweed, herbicidal effect grade (redroot pigweed): 4 (Herbicidal rate of 70% or more and less than 90%); O: lambsquarters, herbicidal effect grade (lambsquarters): 4 (Herbicidal rate of 70% or more and less than 90%) |
| COc1ccccc1-c1sc2cc(OCC(F)(F)F)ccc2c1-c1c(O)c(C)nn(C)c1=O [Compound No. 3-116, 5-hydroxy-4-(2-(2-methoxyphenyl)-6-(2,2,2-trifluoroethoxy)benzo[b]thiophen-3-yl)-2,6-di methylpyridazin-3 (2H)-one] | 5 (Herbicidal rate of 90% or more (almost completely withered)) | – | 4 (Herbicidal rate of 70% or more and less than 90%) | 5 (Herbicidal rate of 90% or more (almost completely withered)) | – | 4 (Herbicidal rate of 70% or more and less than 90%) | – | – | 5 (Herbicidal rate of 90% or more (almost completely withered)) | – | 5 (Herbicidal rate of 90% or more (almost completely withered)) | – | – | 4 (Herbicidal rate of 70% or more and less than 90%) | – | 4 (Herbicidal rate of 70% or more and less than 90%) | 5 (Herbicidal rate of 90% or more (almost completely withered)) | 5 (Herbicidal rate of 90% or more (almost completely withered)) | 5 (Herbicidal rate of 90% or more (almost completely withered)) | 5 (Herbicidal rate of 90% or more (almost completely withered)) | F: southern crabgrass, herbicidal effect grade (southern crabgrass [5]): 5 (Herbicidal rate of 90% or more (almost completely withered)); G: green foxtail, herbicidal effect grade (green foxtail): 5 (Herbicidal rate of 90% or more (almost completely withered)); N: redroot pigweed, herbicidal effect grade (redroot pigweed): 5 (Herbicidal rate of 90% or more (almost completely withered)); O: lambsquarters, herbicidal effect grade (lambsquarters): 5 (Herbicidal rate of 90% or more (almost completely withered)) |
